From BindingDB's records for PubMed 1994002 (National Institute of Neurological Disorders and Stroke, 1991)
Values joined by “and” are separate entries in the source; they are usually repeats but may differ in a detail not shown here. Identical values can stand only once.

How the values were obtained:
[1] = molecular target: T1, Muscarinic acetylcholine receptor M5 (Homo sapiens, UniProt P08912)
T1 sequence (P08912 whole entry): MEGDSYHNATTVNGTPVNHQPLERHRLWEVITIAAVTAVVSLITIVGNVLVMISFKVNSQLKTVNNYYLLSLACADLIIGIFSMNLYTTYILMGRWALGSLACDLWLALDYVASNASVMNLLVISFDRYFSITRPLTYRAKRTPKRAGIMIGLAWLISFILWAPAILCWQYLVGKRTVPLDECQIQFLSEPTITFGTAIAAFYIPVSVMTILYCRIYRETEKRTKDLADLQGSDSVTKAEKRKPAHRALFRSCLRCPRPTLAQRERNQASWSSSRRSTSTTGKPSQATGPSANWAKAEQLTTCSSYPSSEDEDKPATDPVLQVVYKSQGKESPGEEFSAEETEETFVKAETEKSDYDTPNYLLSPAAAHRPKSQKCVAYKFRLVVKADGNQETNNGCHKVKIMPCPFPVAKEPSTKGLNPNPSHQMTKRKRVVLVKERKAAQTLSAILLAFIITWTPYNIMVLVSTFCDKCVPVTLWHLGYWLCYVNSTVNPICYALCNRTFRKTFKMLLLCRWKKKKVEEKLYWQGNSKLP

[2] = molecular target: T2, Muscarinic acetylcholine receptor M4 (Homo sapiens, UniProt P08173)
T2 sequence (P08173 whole entry): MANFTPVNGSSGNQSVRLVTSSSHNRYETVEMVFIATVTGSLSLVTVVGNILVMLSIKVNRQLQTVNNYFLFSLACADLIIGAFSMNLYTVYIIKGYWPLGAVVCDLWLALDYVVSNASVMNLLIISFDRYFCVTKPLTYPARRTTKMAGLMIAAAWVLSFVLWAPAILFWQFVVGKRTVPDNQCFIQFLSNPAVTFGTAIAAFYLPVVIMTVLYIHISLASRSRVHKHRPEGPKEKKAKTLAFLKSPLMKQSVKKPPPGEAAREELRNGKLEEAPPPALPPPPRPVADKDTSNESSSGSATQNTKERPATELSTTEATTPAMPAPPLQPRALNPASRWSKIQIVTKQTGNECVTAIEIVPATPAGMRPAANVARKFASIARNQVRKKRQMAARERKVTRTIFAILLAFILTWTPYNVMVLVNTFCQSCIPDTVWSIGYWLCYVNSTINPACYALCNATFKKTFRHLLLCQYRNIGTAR

[3] = molecular target: T3, Muscarinic acetylcholine receptor M2 (Homo sapiens, UniProt P08172)
T3 sequence (P08172 whole entry): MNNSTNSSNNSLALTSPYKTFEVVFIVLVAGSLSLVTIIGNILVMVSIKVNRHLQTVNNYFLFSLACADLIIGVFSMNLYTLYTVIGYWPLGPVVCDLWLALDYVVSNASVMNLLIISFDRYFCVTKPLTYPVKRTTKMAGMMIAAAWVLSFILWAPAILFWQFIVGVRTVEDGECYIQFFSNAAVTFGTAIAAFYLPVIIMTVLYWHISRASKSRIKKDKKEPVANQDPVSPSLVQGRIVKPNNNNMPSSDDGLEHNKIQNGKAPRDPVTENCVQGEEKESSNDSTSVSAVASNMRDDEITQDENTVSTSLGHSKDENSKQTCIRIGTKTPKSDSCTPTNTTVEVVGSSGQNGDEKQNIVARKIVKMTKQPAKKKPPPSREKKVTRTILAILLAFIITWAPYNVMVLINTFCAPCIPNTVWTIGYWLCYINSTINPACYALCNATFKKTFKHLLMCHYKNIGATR

| SMILES | Ki [1] | Ki [2] | Ki [3] |
| --- | --- | --- | --- |
| C[N+]1(C)CCC(OC(=O)C(c2ccccc2)c2ccccc2)CC1 | 1.05 nM |  |  |
| CCN(CC)CCCCC1CCN(CC(=O)N2c3ccccc3C(=O)Nc3cccnc32)CC1 [NSC_129989] | 832 nM | 6.46 nM |  |
| CCN(CC)CC1CCCCN1CC(=O)N1c2ccccc2NC(=O)c2ccccc21 (single isomer, unassigned; (+)) [CAS_121029-35-4] | 3020 nM | 162 nM | 55 nM |
| C[C@H]1OC(=O)C2C[C@H]3CCCC[C@@H]3[C@@H](/C=C/[C@@H]3CCC[C@H](C)N3C)C21 (stereo partly drawn) [HIMBACINE] | 490 nM |  | 10 nM |
| O[Si](CCCN1CCCCC1)(c1ccc(F)cc1)C1CCCCC1 (stereo not drawn) [CAS_5311091] | 93.3 nM | 31.6 nM | 132 nM |
| OC(C#CCN1CCCCC1)(c1ccccc1)C1CCCCC1 (stereo not drawn) [NSC_2054314] |  | 3.02 nM and 19.5 nM | 20.9 nM and 72.4 nM |
| COc1ccccc1CNCCCCCCNCCCCCCCCNCCCCCCNCc1ccccc1OC [METHOCTRAMINE] | 135 nM | 31.6 nM |  |
| CCCN(CCC)CC1CCCCN1CCNC(=O)N1c2ccccc2C(=O)Nc2cccnc21 (stereo not drawn) | 537 nM | 10 nM | 6.03 nM |
